Results as given in US20030161893A1, “PTPase inhibitors and methods of using the same” (priority 2001, published 2003).

Columns and labels:
Tyk2/Stat3 = test: GM-CSF-induced Tyk2/Stat3 tyrosine phosphorylation in SHP-1-deficient cells; format: cell-based
U266 cells = test: Cell proliferation assay (MTT), U266 multiple myeloma cells; format: cell-based, human; settings: day 6
Protocol: (§1) For cell proliferation assays, cells were grown in 10% FCS culture medium containing various amounts of IFNs and/or sodium stibogluconate in 96 well plates and cultured at 37° C. for 3 or 6 days as indicated. The numbers of viable cells in proliferation assays were determined by MTT assays as described in Phatak et al., J. Immunol. 167, 3391 (2001).

WM9 cells = test: Cell proliferation assay (MTT), WM9 melanoma cells; format: cell-based, human
Protocol: as §1
Dose response curves were generated for each drug alone, and also the combinations. Median effect plots were generated for IFNs alone, sodium stibogluconate alone, and the combination. The combination index (CI) was determined and plotted vs. fraction affected (FA). Data were analyzed in both modes, mutually exclusive and mutually nonexclusive. The interaction between two mutually nonexclusive drugs is described by the Equation CI=D1/D×1+D2/D×2+D1D2/D×1D×2, where D×1 and D×2 are the doses of drug 1 and drug 2 that are required to inhibit growth×%. […] When CI<1, drugs are synergistic, when CI=1, drugs are additive, and when CI>1, drugs are antagonistic.

Flag-PRL-2 = target: T1, Flag-PRL-2 (Homo sapiens, UniProt Q12974); test: Immunocomplex PTPase assay, Flag-PRL-2 NIH3T3 transfectants; format: cell-based
T1 construct: expressed in transfected cells
Protocol: Immunocomplex PTPase assays were performed to assess the effects of sodium stibogluconate on intracellular PTPases. Cells were untreated or treated with sodium stibogluconate for 5 minutes, washed with fresh medium and then lysed in cold lysis buffer (50 mM Tris, pH 7.4; 150 mM NaCl; 1% NP40; 2 mM PMSF; 20 ,g/ml of Aprotinin). The lysates were incubated with an anti-Flag antibody in immunoprecipitation assays. The immunocomplexes were collected with protein G sepharose beads (Pharmacia) and washed in cold lysis buffer for 4 times. […] 100 μL of malachite green solution (UBI) was added to each reaction prior to measurement of OD660 to quantify the amounts of free phosphate cleaved by the PTPases from the peptide substrate (Pathak et al., J. Imumol. 167, 3391 (2001)). The remaining 10% contents of individual samples were analyzed by SDS-PAGE/Western blotting to quantify the relative amounts of the phosphatase proteins. […]
The effects of sodium stibogluconate on intracellular PTPases were assessed using NIH3T3 or WM9 transfectants. […]

DU145R cells = test: Cell growth assay (MTT), DU145R cells; format: cell-based, human; settings: day 6 culture
Protocol: DU145 cells were cultured in the presence of sodium stibogluconate (100 μg/ml) in 48 well plates for 3 weeks. Cells from a well containing a single colony were transferred to flasks, cultured in sodium stibogluconate-free medium for 3 weeks and used as DU145R cells for further characterization. Growth of DU145R cells in the absence or presence of sodium stibogluconate in day 6 culture was determined by MTT assays. cDNAs of the coding region of PRLs were derived by RT-PCR from DU145 and DU145R cells and sequenced using primers described below.

T1 sequence (Q12974 whole entry): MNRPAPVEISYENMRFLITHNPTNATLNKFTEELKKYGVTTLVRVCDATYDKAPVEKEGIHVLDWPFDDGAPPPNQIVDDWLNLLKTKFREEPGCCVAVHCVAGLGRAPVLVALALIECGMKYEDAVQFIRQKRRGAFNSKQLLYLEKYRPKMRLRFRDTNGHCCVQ

O.O.O.O.O.O.O.O.O.O=C([O-])[C@@H]1[O][Sb]2([O-])([O][Sb]34([OH])[O][C@H]([C@H](O)CO)[C@H]([O]3)[C@H](C(=O)[O-])[O]4)[O][C@H]([C@H](O)CO)[C@@H]1[O]2.[Na+].[Na+].[Na+] [sodium stibogluconate]
GM-CSF-induced Tyk2/Stat3 tyrosine phosphorylation (Tyk2/Stat3): augmented
IFN-alpha-induced growth inhibition of U266 cells in presence of drug (U266 cells): augmentation of IFN-alpha-induced cell growth inhibition
growth inhibition of U266 cells by the drug by itself (U266 cells): substantial growth inhibition activity
killing of WM9 cells, single agent (WM9 cells; 50 μg/ml and 100 μg/ml, day 6 culture): killed all cells
IFN-alpha-induced growth inhibition of WM9 in presence of drug (WM9 cells; day 6): augmented
IFN-alpha- and IFN-beta-induced growth inhibition of WM9 in presence of drug (WM9 cells; day 6, most dramatic at 12.5-50 μg/ml and IFNs 12.5-50 units/ml): greatly enhanced
time for full removal of effect on intracellular PRL-2 activity (Flag-PRL-2; brief treatment, NIH3T3 transfectants): at least 24 hours
PTPase activity of anti-Flag immunocomplexes, Flag-PRL-2 (Flag-PRL-2; cells treated 5 min): lack of PTPase activity
growth of DU145R cells versus parental DU145 (DU145R cells): growth resistance to sodium stibogluconate
